Reference: PubChem BioAssay (NCI)
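Method: 48-hour compound exposure of cells in 96-well plates, five concentrations, linear interpolation of endpoints. GI50 is the concentration that inhibits growth by half. The concentration for full growth arrest is given as TGI.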

Assays:
Assay in all cases: NCI-60 cell line screen, 48 h
UO-31 renal = test system: UO-31 renal
ACHN renal = test system: ACHN renal
A549 NSCLC = test system: A549 NSCLC
CAKI-1 renal = test system: CAKI-1 renal
HS 578T breast = test system: HS 578T breast
NCI-H460 lung = test system: NCI-H460 lung
SK-OV-3 ovarian = test system: SK-OV-3 ovarian
MCF7 breast = test system: MCF7 breast
SF-295 CNS = test system: SF-295 CNS
OVCAR-4 ovarian = test system: OVCAR-4 ovarian

SMILES: COc1ccc(-c2ccc(/C=N/n3c(COc4ccccc4Cl)nn(CN4CCN(C)CC4)c3=S)o2)c([N+](=O)[O-])c1
- GI50 (UO-31 renal): 30.1 µM
- TGI (UO-31 renal): > 100 µM
- GI50 (ACHN renal): 23.1 µM
- TGI (ACHN renal): 50.1 µM
- GI50 (A549 NSCLC): 14.1 µM
- TGI (A549 NSCLC): 36.7 µM
- GI50 (CAKI-1 renal): 5.19 µM
- TGI (CAKI-1 renal): 14.6 µM
- GI50 (HS 578T breast): 38.7 µM
- TGI (HS 578T breast): 81.4 µM
- GI50 (NCI-H460 lung): 14.7 µM
- TGI (NCI-H460 lung): 37.6 µM
- GI50 (SK-OV-3 ovarian): 30.6 µM
- TGI (SK-OV-3 ovarian): 83.8 µM
- GI50 (MCF7 breast): 12.9 µM
- TGI (MCF7 breast): 33.8 µM

SMILES: CCOc1ccc([C@@H]2[C@@H](Oc3ccccc3)C(=O)N2c2cc(OC)c(OC)c(OC)c2)cc1
- GI50 (UO-31 renal): 0.613 µM
- TGI (UO-31 renal): > 100 µM
- GI50 (SF-295 CNS): 0.0534 µM
- TGI (SF-295 CNS): > 100 µM
- GI50 (ACHN renal): 0.07 µM
- TGI (ACHN renal): > 100 µM
- GI50 (A549 NSCLC): 0.215 µM
- TGI (A549 NSCLC): > 100 µM
- GI50 (HS 578T breast): 0.0583 µM
- TGI (HS 578T breast): > 100 µM
- GI50 (OVCAR-4 ovarian): 0.928 µM
- TGI (OVCAR-4 ovarian): > 100 µM
- GI50 (NCI-H460 lung): 0.285 µM
- TGI (NCI-H460 lung): > 100 µM
- GI50 (SK-OV-3 ovarian): 0.227 µM
- TGI (SK-OV-3 ovarian): > 100 µM
- GI50 (MCF7 breast): 0.0431 µM
- TGI (MCF7 breast): > 100 µM

SMILES: NC(N)=NS(=O)(=O)c1ccc(NCc2c3ccccc3nc3ccccc23)cc1
- TGI (UO-31 renal): 87.4 µM
- TGI (SF-295 CNS): 22 µM
- TGI (ACHN renal): 30.5 µM
- TGI (A549 NSCLC): > 100 µM
- TGI (CAKI-1 renal): 69.2 µM
- TGI (HS 578T breast): 28.6 µM
- TGI (OVCAR-4 ovarian): > 100 µM
- TGI (NCI-H460 lung): 19.2 µM
- TGI (SK-OV-3 ovarian): 27.3 µM
- TGI (MCF7 breast): 17.5 µM

SMILES: COc1ccccc1-n1c(-c2cc(O)ccc2C)cn2c3c(=O)[nH]c(=O)n(C)c3nc12
- GI50 (UO-31 renal): 9.33 µM
- TGI (UO-31 renal): > 100 µM
- GI50 (SF-295 CNS): 5.34 µM
- TGI (SF-295 CNS): > 100 µM
- GI50 (ACHN renal): 1.99 µM
- TGI (ACHN renal): 63.5 µM
- GI50 (A549 NSCLC): 17.4 µM
- TGI (A549 NSCLC): > 100 µM
- GI50 (CAKI-1 renal): 2.95 µM
- TGI (CAKI-1 renal): 7.05 µM
- GI50 (HS 578T breast): 0.567 µM
- TGI (HS 578T breast): 5.75 µM
- GI50 (OVCAR-4 ovarian): > 100 µM
- TGI (OVCAR-4 ovarian): > 100 µM
- GI50 (NCI-H460 lung): > 100 µM
- TGI (NCI-H460 lung): > 100 µM
- GI50 (SK-OV-3 ovarian): 2.78 µM
- TGI (SK-OV-3 ovarian): > 100 µM
- GI50 (MCF7 breast): > 100 µM
- TGI (MCF7 breast): > 100 µM

SMILES: CC(C)(C)NN=C1C(C)(C)C(=NNC(C)(C)C)C1(C)C
- TGI (UO-31 renal): > 100 µM
- TGI (SF-295 CNS): > 100 µM
- TGI (ACHN renal): > 100 µM
- TGI (A549 NSCLC): > 100 µM
- TGI (CAKI-1 renal): > 100 µM
- TGI (OVCAR-4 ovarian): > 100 µM
- TGI (NCI-H460 lung): > 100 µM
- TGI (SK-OV-3 ovarian): > 100 µM

SMILES: CSC(C1c2ccccc2N(C)C2=NC(=O)N(C)C(=O)C21Cl)S(=O)(=O)c1ccc(C)cc1 (stereo unspecified)
- TGI (UO-31 renal): > 100 µM
- TGI (SF-295 CNS): > 100 µM
- TGI (ACHN renal): > 100 µM
- TGI (A549 NSCLC): > 100 µM
- TGI (CAKI-1 renal): 48 µM
- TGI (OVCAR-4 ovarian): > 100 µM
- TGI (NCI-H460 lung): > 100 µM
- TGI (SK-OV-3 ovarian): > 100 µM

SMILES: Cc1ccc(C2NC(=S)NC3=C2CCOc2c3ccc3ccccc23)cc1 (stereo unspecified)
- GI50 (UO-31 renal): > 100 µM
- TGI (UO-31 renal): > 100 µM
- GI50 (ACHN renal): 44 µM
- TGI (ACHN renal): > 100 µM
- GI50 (A549 NSCLC): > 100 µM
- TGI (A549 NSCLC): > 100 µM
- GI50 (CAKI-1 renal): 3.07 µM
- TGI (CAKI-1 renal): 11.7 µM
- GI50 (HS 578T breast): > 100 µM
- TGI (HS 578T breast): > 100 µM
- GI50 (OVCAR-4 ovarian): 29.4 µM
- TGI (OVCAR-4 ovarian): > 100 µM
- GI50 (NCI-H460 lung): 64.8 µM
- TGI (NCI-H460 lung): > 100 µM
- GI50 (SK-OV-3 ovarian): > 100 µM
- TGI (SK-OV-3 ovarian): > 100 µM
- GI50 (MCF7 breast): 32.4 µM
- TGI (MCF7 breast): > 100 µM

SMILES: COC1=CC(O)(CC(N)=O)c2ccccc2C1=O (stereo unspecified)
- TGI (UO-31 renal): > 100 µM
- TGI (SF-295 CNS): > 100 µM
- TGI (ACHN renal): > 100 µM
- TGI (A549 NSCLC): > 100 µM
- TGI (CAKI-1 renal): > 100 µM
- TGI (OVCAR-4 ovarian): > 100 µM
- TGI (NCI-H460 lung): > 100 µM
- TGI (SK-OV-3 ovarian): > 100 µM

SMILES: COc1ccc(C2=NNC(=O)OC2c2ccccc2)cc1 (stereo unspecified)
- TGI (UO-31 renal): > 100 µM
- TGI (SF-295 CNS): > 100 µM
- TGI (ACHN renal): > 100 µM
- TGI (A549 NSCLC): > 100 µM
- TGI (CAKI-1 renal): > 100 µM
- TGI (OVCAR-4 ovarian): > 100 µM
- TGI (NCI-H460 lung): > 100 µM

SMILES: CC/C=C1\N=C(c2ccc(Cl)cc2)OC1=O
- TGI (UO-31 renal): > 100 µM
- TGI (SF-295 CNS): > 100 µM
- TGI (ACHN renal): > 100 µM
- TGI (A549 NSCLC): > 100 µM
- TGI (CAKI-1 renal): > 100 µM
- TGI (OVCAR-4 ovarian): > 100 µM
- TGI (NCI-H460 lung): > 100 µM
- TGI (SK-OV-3 ovarian): > 100 µM

SMILES: C1CCN(CCC2CCCCN2)CC1 (stereo unspecified)
- TGI (SF-295 CNS): > 100 µM
- TGI (ACHN renal): > 100 µM
- TGI (A549 NSCLC): > 100 µM
- TGI (CAKI-1 renal): > 100 µM
- TGI (HS 578T breast): > 100 µM
- TGI (OVCAR-4 ovarian): > 100 µM
- TGI (NCI-H460 lung): > 100 µM
- TGI (SK-OV-3 ovarian): > 100 µM
- TGI (MCF7 breast): > 100 µM

SMILES: COc1cc2c(cc1OC)-c1cc3cc(OC)c(OC)cc3n1CC2
- TGI (UO-31 renal): > 100 µM
- TGI (SF-295 CNS): > 100 µM
- TGI (ACHN renal): 85.9 µM
- TGI (A549 NSCLC): > 100 µM
- TGI (CAKI-1 renal): > 100 µM
- TGI (OVCAR-4 ovarian): > 100 µM
- TGI (NCI-H460 lung): > 100 µM
- TGI (SK-OV-3 ovarian): > 100 µM

SMILES: C=C/C=C(\NC(=O)C(Cl)(Cl)Cl)[Si](C)(C)C
- TGI (UO-31 renal): > 100 µM
- TGI (SF-295 CNS): > 100 µM
- TGI (ACHN renal): > 100 µM
- TGI (A549 NSCLC): > 100 µM
- TGI (OVCAR-4 ovarian): > 100 µM
- TGI (NCI-H460 lung): > 100 µM
- TGI (SK-OV-3 ovarian): > 100 µM

SMILES: Cc1cc(N(CCC#N)S(C)(=O)=O)ccc1C=O
- TGI (UO-31 renal): > 100 µM
- TGI (SF-295 CNS): > 100 µM
- TGI (ACHN renal): > 100 µM
- TGI (A549 NSCLC): > 100 µM
- TGI (CAKI-1 renal): > 100 µM
- TGI (OVCAR-4 ovarian): > 100 µM
- TGI (NCI-H460 lung): > 100 µM
- TGI (SK-OV-3 ovarian): > 100 µM

SMILES: N#CC(C(=O)/C(=N\Nc1nc(=S)[nH]n1N)C(C#N)c1ccc(Cl)cc1)c1ccc(Cl)cc1 (stereo unspecified)
- TGI (UO-31 renal): > 100 µM
- TGI (SF-295 CNS): > 100 µM
- TGI (ACHN renal): > 100 µM
- TGI (A549 NSCLC): > 100 µM
- TGI (CAKI-1 renal): > 100 µM
- TGI (OVCAR-4 ovarian): > 100 µM
- TGI (NCI-H460 lung): > 100 µM
- TGI (SK-OV-3 ovarian): > 100 µM

SMILES: CCCN(CCCC(NC(C)=O)C(=O)NCc1ccccc1)C(=O)NC (stereo unspecified)
- TGI (UO-31 renal): > 100 µM
- TGI (SF-295 CNS): > 100 µM
- TGI (ACHN renal): > 100 µM
- TGI (A549 NSCLC): > 100 µM
- TGI (CAKI-1 renal): > 100 µM
- TGI (OVCAR-4 ovarian): > 100 µM
- TGI (NCI-H460 lung): > 100 µM
- TGI (SK-OV-3 ovarian): > 100 µM

SMILES: COc1ccc(/C(=N/NC(=O)NN)C(c2ccc(OC)cc2)C2(O)CNc3c(Cl)cc(Cl)cc32)cc1 (stereo unspecified)
- TGI (UO-31 renal): > 100 µM
- TGI (SF-295 CNS): > 100 µM
- TGI (ACHN renal): > 100 µM
- TGI (A549 NSCLC): > 100 µM
- TGI (OVCAR-4 ovarian): > 100 µM
- TGI (NCI-H460 lung): > 100 µM
- TGI (SK-OV-3 ovarian): > 100 µM

SMILES: O=C(CC1(O)C(=O)Nc2ccccc21)c1ccccc1Cl (stereo unspecified)
- TGI (UO-31 renal): > 100 µM
- TGI (SF-295 CNS): > 100 µM
- TGI (ACHN renal): > 100 µM
- TGI (A549 NSCLC): > 100 µM
- TGI (CAKI-1 renal): > 100 µM
- TGI (OVCAR-4 ovarian): > 100 µM
- TGI (NCI-H460 lung): > 100 µM
- TGI (SK-OV-3 ovarian): > 100 µM

SMILES: COC1(OC)CC2C=C(S(=O)(=O)c3ccccc3)C1N(Cc1ccccc1)C2=O (stereo unspecified)
- TGI (UO-31 renal): > 100 µM
- TGI (SF-295 CNS): > 100 µM
- TGI (ACHN renal): > 100 µM
- TGI (A549 NSCLC): > 100 µM
- TGI (OVCAR-4 ovarian): > 100 µM
- TGI (NCI-H460 lung): > 100 µM
- TGI (SK-OV-3 ovarian): > 100 µM

SMILES: Cn1c2c(c3ccccc31)C1CCCCC1C1C(=O)NC(=O)C21 (stereo unspecified)
- TGI (UO-31 renal): > 100 µM
- TGI (SF-295 CNS): > 100 µM
- TGI (ACHN renal): > 100 µM
- TGI (A549 NSCLC): > 100 µM
- TGI (OVCAR-4 ovarian): > 100 µM
- TGI (NCI-H460 lung): > 100 µM
- TGI (SK-OV-3 ovarian): > 100 µM

SMILES: CSc1cnn(CCC#N)c(=O)n1
- TGI (UO-31 renal): > 100 µM
- TGI (SF-295 CNS): > 100 µM
- TGI (ACHN renal): > 100 µM
- TGI (A549 NSCLC): > 100 µM
- TGI (CAKI-1 renal): > 100 µM
- TGI (HS 578T breast): > 100 µM
- TGI (SK-OV-3 ovarian): > 100 µM
- TGI (MCF7 breast): > 100 µM
